In data set [1] the test system is avian CoV-IBV. The experiment in a line: microbe, parasite or virus in culture. Type of data set: cell-based. Conditions: for Virucidal Activity Inhibition (%): 2 h incubation with virus at 37 °C, qRT-PCR. For orientation: Real-time PCR tracks product formation cycle by cycle.
Data set [2] has as its system avian CoV-IBV. Type of data set: cell-based. Conditions: IBV titration in infected Vero cells, qRT-PCR, 3 days post-infection.
A short description of data set [3]: MTT cytotoxicity assay on uninfected Vero cells. Type of data set: cell-based. Conditions: African green monkey, uninfected Vero cells (CCL-81), 3 days at 37 °C, read-out: CC50 (half-maximum cytotoxic concentration). As to the method: Vero cells (CCL-81, American Type Culture Collection, Boston, MA, USA), used as a cellular model for antiviral bioassay, were cultured in Dulbecco’s modified Eagle’s medium (DMEM), supplemented with 10% fetal bovine serum (FBS) and gentamycin, and incubated at 37 °C with 5% CO2. They were used to adapt the avian Massachusetts serotype CoV-IBV strain.
Cell viability was evaluated using the MTT (3-(4,5-dimethylthiazol-2-yl)-2,5-diphe- nyltetrazolium bromide) method. The MTT assay is sensitive and reliable for cellular metabolic activity. It is based on the ability of nicotinamide adenine dinucleotide phosphate (NADPH)-dependent cellular oxidoreductase enzyme to reduce the tetrazolium dye to the purple formazan crystals. Sub-confluent Vero cells, seeded in 96-well microplates (2 × 10^6 cells/microplate; Thermo Fisher Scientific), were incubated with serial dilutions of synthesized molecules, in duplicates for 3 days at 37 °C. MTT solution (500 μg/mL) was then added, and the cells were incubated for further 4 h. The formed formazan crystals within metabolically viable cells were then dissolved in 100 µL of DMSO, and the absorption, proportional to viable cell number, was measured at 490 nm with a Thermo Scientific Multiskan FC. The results were expressed as a percentage of viable cells relative to the negative control (untreated cells cultured in standard medium and considered 100% viable). The half-maximum cytotoxic concentration (CC50), which was defined as the concentration which reduced the OD490 of the 1,3,4-oxadiazole-derived α-aminophosphonates/α-aminophosphonic acids-treated cells to 50% of that of untreated cells, were determined from the plotted curve of percentages of viable cells against compound concentrations.

The subject of the next data set is IBV. More on the design: method as in PMID 17479370. Conditions: dose-dependent, without virucidal effect; cited from earlier work.
In a further data set the test system is IBV Beaudette strain. More on the design: method as in PMID 17479370. The settings on record: 5 to 50 mM; cited from earlier work.
The mark [4] stands for this setting: Avian coronavirus, 2 h, read-out: Virucidal Activity Inhibition (%).

Like-named read-outs stand apart in the source and are kept apart here.

The term inhibition denotes the change of the read-out against control, counted positive when it falls. The term melting point denotes the temperature of the solid-liquid transition.

As for `CCOP(=O)(OCC)C(Nc1nnc(-c2ccccc2)o1)c1ccc([N+](=O)[O-])cc1` (stereo not shown) [5b, diethyl[(5-phenyl-1,3,4-oxadiazol-2-ylamino) (4-nitrophenyl)methyl]phosphonate], the inhibition at 33 µM in the data set on avian CoV-IBV [1] (setting [4]) is 35 ± 0.53%. In addition, the “Antiviral Activity” value with avian CoV-IBV [2] (33 µM) is “Not active”. Moreover, the CC50 at 3 days in data set [3] was found to be 1599 ± 4.73 µM.
For `CCOP(=O)(OCC)C(Nc1nnc(-c2ccccc2)o1)c1ccc(F)cc1` (stereo not shown) [5c, diethyl[(5-phenyl-1,3,4-oxadiazol-2-ylamino)(4-fluorophenyl)methyl]phosphonate], in the data set on avian CoV-IBV [1] (setting [4]), the inhibition at 3.66 µM stood at 46 ± 1.49%. The “Antiviral Activity” value in the data set with avian CoV-IBV [2] (3.66 µM) is on record as “Not active”. Moreover, the CC50 at 3 days in data set [3] is around 550 µM.
As for `CCOP(=O)(OCC)C(Nc1nnc(-c2ccccc2)o1)c1ccc(OC(F)(F)F)cc1` (stereo not shown) [5f, diethyl[(5-phenyl-1,3,4-oxadiazol-2-ylamino)(4-trifluoromethoxyphenyl)methyl]phosphonate], the melting point lay within 106.6 to 107.5 °C. In addition, in the data set with avian CoV-IBV [1] (33 µM), the “Virucidal Activity Inhibition (%)” value is “strongly inhibited the IBV infectivity”. In the data set with avian CoV-IBV [1] (setting [4]), the inhibition at 33 µM turned out to be 86.1 ± 1.58%. For the same compound, in the data set on avian CoV-IBV [2] (33 µM), the “Antiviral Activity” value is listed as “Not active”.
Consider `O=P(O)(O)C(Nc1nnc(-c2ccccc2)o1)c1ccc(C(F)(F)F)cc1` (stereo not shown) [6a, [(5-phenyl-1,3,4-oxadiazol-2-ylamino)(4-trifluoromethylphenyl)methyl] phosphonic acid], for which the melting point was above 260 °C. For the same compound, in the data set with avian CoV-IBV [1] (1.23 µM), the “Virucidal Activity Inhibition (%)” value was “strongly inhibited the IBV infectivity”. The inhibition at 1.23 µM in the data set with avian CoV-IBV [1] (setting [4]) was 75 ± 0.75%. The “Antiviral Activity” value in the data set on avian CoV-IBV [2] (1.23 µM) is reported as “Not active”. Besides, the CC50 at 3 days in data set [3] is around 550 µM.
On to `O=[N+]([O-])c1ccc(C(Nc2nnc(-c3ccccc3)o2)P(=O)(O)O)cc1` (stereo not shown) [6b, [(5-Phenyl-1,3,4-oxadiazol-2-ylamino)(4-nitrophenyl)methyl]phosphonic acid], for which the inhibition at 3.66 µM in the data set on avian CoV-IBV [1] (setting [4]) was 31.4 ± 2.4%. Moreover, the “Antiviral Activity” value with avian CoV-IBV [2] (3.66 µM) is “Not active”. In data set [3], the CC50 at 3 days is around 550 µM.
Regarding `O=P(O)(O)C(Nc1nnc(-c2ccccc2)o1)c1ccc(F)cc1` (stereo not shown) [6c, [(5-Phenyl-1,3,4-oxadiazol-2-ylamino)(4-fluorophenyl)methyl]phosphonic acid], in the data set on avian CoV-IBV [1] (setting [4]), the inhibition at 33 µM came to 59.6 ± 1.34%. For the same compound, in the data set with avian CoV-IBV [2] (33 µM), the “Antiviral Activity” value is reported as “Not active”.
As to `O=P(O)(O)C(Nc1nnc(-c2ccccc2)o1)c1cc(F)c(F)c(F)c1` (stereo not shown) [6d, [(5-Phenyl-1,3,4-oxadiazol-2-ylamino)(3,4,5-trifluophenyl)methyl]phosphonic acid], in the data set on avian CoV-IBV [1] (setting [4]), the inhibition at 3.66 µM was 25 ± 1.15%. Further, the “Antiviral Activity” value in the data set on avian CoV-IBV [2] (3.66 µM) is listed as “Not active”. Also, in data set [3], the CC50 at 3 days was around 550 µM.
Regarding `O=P(O)(O)C(Nc1nnc(-c2ccccc2)o1)c1cc(C(F)(F)F)cc(C(F)(F)F)c1` (stereo not shown) [6e, [(5-Phenyl-1,3,4-oxadiazol-2-ylamino)(3,5-bis-trifuoromethyl-phenyl)methyl] phosphonic acid], the inhibition at 33 µM in the data set on avian CoV-IBV [1] (setting [4]) came out at 22.7 ± 3.25%. Further, in the data set on avian CoV-IBV [2] (33 µM), the “Antiviral Activity” value was “Not active”. For the same compound, in data set [3], the CC50 at 3 days is around 550 µM.
`[Cl-].[Li+]` [LiCl, lithium chloride]: the “replication of IBV in Vero cells” value in the data set on IBV is listed as “suppress the replication of IBV in Vero cells in a dose-dependent manner”. In the data set on IBV Beaudette strain, the “virucidal activity (virus titre after incubation)” value is “did not modify the title of the virus”.

(Values after PMC9867332 (Pharmaceutics, 2022).)
